Assay results taken from patent US20090136448A1, “Antiviral 2-Carboxy-Thiophene Compounds” (priority 2005, published 2009).

Columns and labels:
[1] = system: HCV replication, genotype 1a (Huh-7 HCV replicon cell); experiment: Replicon ELISA cell based assay, genotype 1a; details: Hepatitis C virus, Huh-7 HCV replicon cells, 72 hours, mean, assayed at least twice
Method: (§1) Replicon ELISA Cell Based Assay
(§2) 100 μL of medium containing 10% FCS were added to each well of clear, flat-bottomed 96 well microplates, excepting wells in the top row. Test compound was diluted in assay medium to twice the final required starting concentration from a 40 mM stock solution in DMSO. 200 μL of the starting dilution were introduced into two wells each in the top row and doubling dilutions made down the plate by the sequential transfer of 100 μL aliquots with thorough mixing in the wells; the final 100 μL were discarded. The two bottom rows were not used for compound dilutions. Huh-7 HCV replicon cell monolayers nearing confluency were stripped from growth flasks with versene-trypsin solution and the cells were resuspended in assay medium at either 2×10^5 cells/mL (sub-line 5-15; genotype 1b; Lohmann, V., Korner, F., Koch, J-O., Herian, U., Thielmann, L. and Bartenschlager, R., Science, 1999, 285, 110-113) or at 3×10^5 cells/mL (genotype 1a; Gu, B., Gates, A. T., Isken, O., Behrens, S. E. and Sarisky, R. T., J. Virol., 2003, 77, 5352-5359). 100 μL of cell suspension were added to all wells and the plates incubated at 37° C. for 72 hours in a 5% CO2 atmosphere.
(§3) Following incubation, the assay medium was aspirated from the plates. The cell sheets were washed by gentle immersion in phosphate buffered saline (PBS), which was then aspirated off, and fixed with acetone:methanol (1:1) for 5 minutes. Following a further wash with PBS, 100 μL of ELISA diluent (PBS+0.05% v/v Tween 20+2% w/v skimmed milk powder) were added to all wells and the plates incubated at 37° C. for 30 minutes on an orbital platform. The diluent was removed and each well then received 50 μL of a 1/200 dilution of anti-HCV specific, murine, monoclonal antibody (either Virostat #1872 or #1877), except for wells in one of the compound-free control rows which received diluent alone to act as negative controls. The plates were incubated at 37° C. for 2 hours and washed 3 times with PBS/0.05% Tween 20, then 50 μL of horseradish peroxidase conjugated, anti-mouse, rabbit polyclonal serum (Dako #P0260), diluted 1/1000, were added to all wells. The plates were incubated for a further hour, the antibody removed and the cell sheets washed 5 times with PBS/Tween and blotted dry. The assay was developed by the addition of 50 μL of ortho-phenylenediamine/peroxidase substrate in urea/citrate buffer (SigmaFast, Sigma #P-9187) to each well, and colour allowed to develop for up to 15 minutes. The reaction was stopped by the addition of 25 μL per well of 2 M sulphuric acid and the plates were read at 490 nm on a Fluostar Optima spectrophotometer.
(§4) The substrate solution was removed and the plates were washed in tap water, blotted dry and the cells stained with 5% carbol fuchsin in water for 30 minutes. The stain was discarded and the cell sheets washed, dried and examined microscopically to assess cytotoxicity.
(§5) The absorbance values from all compound-free wells that had received both primary and secondary antibodies were averaged to obtain a positive control value. The mean absorbance value from the compound-free wells that had not received the primary antibody was used to provide the negative (background) control value. The readings from the duplicate wells at each compound concentration were averaged and, after the subtraction of the mean background from all values, were expressed as a percentage of the positive control signal. The quantifiable and specific reduction of expressed protein detected by the ELISA in the presence of a drug can be used as a measure of replicon inhibition. GraFit software (Erithacus Software Ltd.) was used to plot the curve of percentage inhibition against compound concentration and derive the 50% inhibitory concentration (IC50) for the compound.

[2] = system: HCV replication, genotype 1b (Huh-7 HCV replicon cell, sub-line 5-15); experiment: Replicon ELISA cell based assay, genotype 1b; details: Hepatitis C virus, Huh-7 HCV replicon cells, genotype 1b (sub-line 5-15), 72 hours, mean, assayed at least twice
Method: as §1, §2, §3, §4, §5

## CC(C)N(c1cc(-c2ccccc2)sc1C(=O)O)C(=O)[C@H]1CC[C@H](C)CC1 [Compound A, 5-Phenyl-3-[[(trans-4-methylcyclohexyl)carbonyl](1-methylethyl)amino]-2-thiophenecarboxylic acid, reference compound]
[1]
  IC50: 1000 to 5000 nM
[2]
  IC50: 100 to 500 nM

## CC(C)N(c1cc(-c2ccc(-c3nc4cccc(O)c4o3)cc2)sc1C(=O)O)C(=O)[C@H]1CC[C@H](C)CC1 [Example 20, 5-[4-(7-Hydroxy-1,3-benzoxazol-2-yl)phenyl]-3-[[(trans-4-methylcyclohexyl)carbonyl](1-methylethyl)amino]-2-thiophenecarboxylic acid]
[1]
  IC50: 100 to 500 nM
[2]
  IC50: 10 to 50 nM

## CC(C)N(C(=O)c1ccc(Cl)cc1Cl)c1cc(-c2ccc(-c3nnn[nH]3)cc2)sc1C(=O)O [Compound F, 3-[[(2,4-Dichlorophenyl)carbonyl](1-methylethyl)amino]-5-[4-(1H-tetrazol-5-yl)phenyl]-2-thiophenecarboxylic acid, reference compound]
[1]
  IC50: 1000 to 5000 nM
[2]
  IC50: > 5000 nM

## CC(C)N(c1cc(-c2ccc(Cl)cc2)sc1C(=O)O)C(=O)[C@H]1CC[C@H](C)CC1 [Compound B, 5-(4-Chlorophenyl)-3-[[(trans-4-methylcyclohexyl)carbonyl](1-methylethyl)amino]-2-thiophenecarboxylic acid, reference compound]
[1]
  IC50: 1000 to 5000 nM
[2]
  IC50: 1000 to 5000 nM

## CC(C)N(c1cc(-c2ccc(-c3cc4cc(N)ccc4o3)cc2)sc1C(=O)O)C(=O)[C@H]1CC[C@H](C)CC1 [Example 29, 5-[4-(5-Amino-1-benzofuran-2-yl)phenyl]-3-[[(trans-4-methylcyclohexyl)carbonyl](1-methylethyl)amino]-2-thiophenecarboxylic acid]
[1]
  IC50: 100 to 500 nM
[2]
  IC50: 100 to 500 nM

## CC(C)N(c1cc(-c2ccc(-c3cc4ncccn4n3)cc2)sc1C(=O)O)C(=O)[C@H]1CC[C@H](C(F)(F)F)CC1 [Example 15, 3-((1-Methylethyl){[trans-4-(trifluoromethyl)cyclohexyl]carbonyl}-amino)-5-(4-pyrazolo[1,5-a]pyrimidin-2-ylphenyl)-2-thiophenecarboxylic acid]
[1]
  IC50: 100 to 500 nM
[2]
  IC50: 50 to 100 nM

## CC(C)N(c1cc(-c2ccc(-c3ccc(Cl)cc3)cc2)sc1C(=O)O)C(=O)[C@H]1CC[C@H](C)CC1 [Compound C, 5-(4′-Chloro-4-biphenylyl)-3-[[(trans-4-methylcyclohexyl)carbonyl](1-methylethyl)amino]-2-thiophenecarboxylic acid, reference compound]
[1]
  IC50: 1000 to 5000 nM
[2]
  IC50: > 5000 nM

## CC(C)N(c1cc(-c2ccc(-c3ccc4[nH]ccc4c3)cc2)sc1C(=O)O)C(=O)[C@H]1CC[C@H](C)CC1 [Example 41, 5-[4-(1H-Indol-5-yl)phenyl]-3-[[(trans-4-methylcyclohexyl)carbonyl](1-methylethyl)amino]-2-thiophenecarboxylic acid]
[1]
  IC50: 100 to 500 nM
[2]
  IC50: 50 to 100 nM
